Our source for the Ki values is patent publication US9346786B2, “Pyrrolidine compounds” (Hoffmann-La Roche Inc., priority 2009, dated 2016).

The structures appear in SMILES notation.

Sequence of recombinant human NK3 receptor (P29371 whole entry): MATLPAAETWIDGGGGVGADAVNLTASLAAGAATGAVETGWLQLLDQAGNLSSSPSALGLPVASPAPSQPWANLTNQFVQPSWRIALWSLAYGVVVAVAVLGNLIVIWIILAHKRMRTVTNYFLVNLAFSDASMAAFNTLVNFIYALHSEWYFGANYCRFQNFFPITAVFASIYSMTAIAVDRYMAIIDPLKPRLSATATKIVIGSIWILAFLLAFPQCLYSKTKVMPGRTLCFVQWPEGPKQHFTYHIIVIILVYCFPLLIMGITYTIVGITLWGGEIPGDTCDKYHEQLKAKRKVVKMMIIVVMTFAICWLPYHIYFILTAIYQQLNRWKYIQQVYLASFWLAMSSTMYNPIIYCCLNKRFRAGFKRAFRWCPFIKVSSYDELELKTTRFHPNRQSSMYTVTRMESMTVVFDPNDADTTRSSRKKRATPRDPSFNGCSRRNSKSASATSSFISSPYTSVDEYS

One assay addresses recombinant human NK3 receptor (Homo sapiens (Human), UniProt P29371). The assay can be described thus: biochemical. The format is binding. Conditions: [3H]SR142801, membranes of HEK293 cells transiently expressing recombinant human NK3 receptor; read-out: Data Ki (hNK-3 receptor affinity). The protocol: [^3H]SR142801 Competition Binding Assay
hNK3 receptor binding experiment were performed using [^3H]SR142801 (Catalog No. TRK1035, specific activity: 74.0 Ci/mmol, Amersham, GE Healthcare UK limited, Buckinghamshire, UK) and membrane isolated from HEK293 cells transiently expressing recombinant human NK3 receptor. After thawing, the membrane homogenates were centrifuged at 48,000×g for […] at 4° C., the pellets were resuspended in the 50 mM Tris-HCl, 4 mM MnCl2, 1 μM phosphoramidon, 0.1% BSA binding buffer at pH 7.4 to a final assay concentration of 5 μg protein/well. For inhibition experiments, membranes were incubated with [^3H]SR142801 at a concentration equal to KD value of radioligand and 10 concentrations of the inhibitory compound (0.0003-10 μM) (in a total reaction volume of 500 μl) for 75 min at room temperature (RT). At the end of the incubation, membranes were filtered onto unitfilter (96-well white microplate with bonded GF/C filter preincubated 1 h in 0.3% PEI+0.3% BSA, Packard BioScience, Meriden, Conn.) with a Filtermate 196 harvester (Packard BioScience) and washed 4 times with ice-cold 50 mM Tris-HCl, pH 7.4 buffer. Nonspecific binding was measured in the presence of 10 μM SB222200 for both radioligands. The radioactivity on the filter was counted (5 min) on a Packard Top-count microplate scintillation counter with quenching correction after addition of 45 μl of microscint 40 (Canberra Packard S.A., Zürich, Switzerland) and shaking for 1 h. Inhibition curves were fitted according to the Hill equation: y=100/(1+(x/IC50)^nH), where nH=slope factor using Excel-fit 4 software (Microsoft). IC50 values were derived from the inhibition curve and the affinity constant (Ki) values were calculated using the Cheng-Prussoff equation Ki=IC50/(1+[L]/KD) where [L] is the concentration of radioligand and KD is its dissociation constant at the receptor, derived from the saturation isotherm. All experiments were performed in duplicate and the mean±standard error (SEM) of the individual Ki values was calculated.
Take `CCN(C(=O)Oc1ccc(F)cc1)[C@@H]1CN(C(=O)C2CCN(c3ccc(C#N)cn3)CC2)C[C@H]1c1ccc(Cl)cc1` [Example 21, [(3S,4R)-4-(4-Chloro-phenyl)-1-(5′-cyano-3,4,5,6-tetrahydro-2H-[1,2′]bipyridinyl-4-carbonyl)-pyrrolidin-3-yl]-ethyl-carbamic acid 4-fluoro-phenyl ester]: the Ki (in general, the dissociation constant of the complex between target and ligand, obtained from inhibition or displacement) is 2 nM. On the same count and under the same terms, for `CCN(C(=O)Oc1ccc(F)cc1)[C@H]1CN(C(=O)C2CCN(c3ccc(C#N)cn3)CC2)C[C@@H]1c1ccc(Cl)cc1` [Example 22, [(3R,4S)-4-(4-Chloro-phenyl)-1-(5′-cyano-3,4,5,6-tetrahydro-2H-[1,2′]bipyridinyl-4-carbonyl)-pyrrolidin-3-yl]-ethyl-carbamic acid 4-fluoro-phenyl ester] the value was 25 nM; for `CC(C)N(C(=O)Oc1ccc(F)cc1)[C@@H]1CN(C(=O)C2CCN(c3ccc(C#N)cn3)CC2)C[C@H]1c1ccc(Cl)cc1` [Example 23, [(3S,4R)-4-(4-Chloro-phenyl)-1-(5′-cyano-3,4,5,6-tetrahydro-2H-[1,2′]bipyridinyl-4-carbonyl)-pyrrolidin-3-yl]-isopropyl-carbamic acid 4-fluoro-phenyl ester], 21 nM; for `CC(=O)c1ccc(N2CCC(C(=O)N3C[C@@H](N(C(=O)Oc4ccc(F)cc4)C(C)C)[C@H](c4ccc(Cl)cc4)C3)CC2)nc1` [Example 24, [(3S,4R)-1-(5′-Acetyl-3,4,5,6-tetrahydro-2H-[1,2′]bipyridinyl-4-carbonyl)-4-(4-chloro-phenyl)-pyrrolidin-3-yl]-isopropyl-carbamic acid 4-fluoro-phenyl ester], 62 nM. The same measure, in the same setting: for `CC(C)N(C(=O)Oc1ccc(F)cc1)[C@@H]1CN(C(=O)C2CCN(c3ccc(C(F)(F)F)cn3)CC2)C[C@H]1c1ccc(Cl)cc1` [Example 25, [(3S,4R)-4-(4-Chloro-phenyl)-1-(5′-trifluoromethyl-3,4,5,6-tetrahydro-2H-[1,2′]bipyridinyl-4-carbonyl)-pyrrolidin-3-yl]-isopropyl-carbamic acid 4-fluoro-phenyl ester] the value was 112 nM; for `CC(C)N(C(=O)Oc1ccc(F)cc1)[C@@H]1CN(C(=O)C2CCN(c3ccc(C#N)nn3)CC2)C[C@H]1c1ccc(Cl)cc1` [Example 26, {(3S,4R)-4-(4-Chloro-phenyl)-1-[1-(6-cyano-pyridazin-3-yl)-piperidine-4-carbonyl]-pyrrolidin-3-yl}-isopropyl-carbamic acid 4-fluoro-phenyl ester], 46 nM. Consider `CC(C)N(C(=O)Oc1ccc(F)cc1)[C@@H]1CN(C(=O)C2CCN(c3cnc(C#N)cn3)CC2)C[C@H]1c1ccc(Cl)cc1` [Example 27, {(3S,4R)-4-(4-Chloro-phenyl)-1-[1-(5-cyano-pyrazin-2-yl)-piperidine-4-carbonyl]-pyrrolidin-3-yl}-isopropyl-carbamic acid 4-fluoro-phenyl ester], for which the Ki is 47 nM.

Still in this assay, the particulars now being: read-out: Data Ki (hNK-3 receptor affinity).
Turning to `CCN(C(=O)Oc1ccc(F)cc1)[C@H]1CN(C(=O)C2CCN(c3ccc(C(F)(F)F)cn3)CC2)C[C@@H]1c1ccc(Cl)cc1` [Example 19, [(3R,4S)-4-(4-Chloro-phenyl)-1-(5′-trifluoromethyl-3,4,5,6-tetrahydro-2H-[1,2′]bipyridinyl-4-carbonyl)-pyrrolidin-3-yl]-ethyl-carbamic acid 4-fluoro-phenyl ester], the inhibition constant (Ki) turned out to be 88 nM. The same measure, in the same setting: the figure for `CCN(C(=O)Oc1ccc(F)cc1)[C@@H]1CN(C(=O)C2CCN(c3ccc(C(F)(F)F)cn3)CC2)C[C@H]1c1ccc(Cl)cc1` [Example 20, [(3S,4R)-4-(4-Chloro-phenyl)-1-(5′-trifluoromethyl-3,4,5,6-tetrahydro-2H-[1,2′]bipyridinyl-4-carbonyl)-pyrrolidin-3-yl]-ethyl-carbamic acid 4-fluoro-phenyl ester] is 3 nM.
